Source: patent US20010025059A1, “Composition and method for treating non-bacterial prostatitis” (priority 2000, published 2001)

Key:
[1] = tested on: non-bacterial prostatitis; test: Example II: double blind study, 30 patients without positive bacterial cultures localized to the prostatic fluid; type: in vivo, human
Experimental: A double blind study using 30 patients without positive bacterial cultures localized to the prostatic fluid were enrolled in a double blind study. Seventeen of the patients received a composition comprised of quercetin in amount of 500 milligrams, bromelain in an amount of 10 milligrams, and papain in an amount of 10 milligrams as the active ingredients thereof. After a randomized study was completed, an additional fifteen patients were treated in an open label study with […]. […] The mean symptom score improved from 21.0 to 13.1 in the group receiving quercetin, but from 20.2 to 18.8 in the placebo group. This represented an improvement of 35%. In those patients which received only the quercetin, without the papain and bromelain, with obtainable extra prostatic secretions, the white blood cell count in the prostatic fluid decreased from 16.8 to 5.3, versus a decrease from 13.1 to 8.3 in the placebo patients.

[2] = Tests of bioavailability / transmural intestinal absorption; type: in vivo; details: quercetin alone; transmural intestinal absorption relatively low

In the case of `O=c1c(O)c(-c2ccc(O)c(O)c2)oc2cc(O)cc(O)c12` [quercetin], the “mean symptom score, after treatment” value ([1]; end of study) is reported as 13.1, the “improvement of mean symptom score” value ([1]; human, in vivo) is reported as 35% and the “white blood cell count in the prostatic fluid, after treatment” value ([1]; patients with obtainable prostatic secretions, end of study) is reported as 5.3. The “white blood cell count in the prostatic fluid, before treatment” value ([1]; patients with obtainable prostatic secretions, starting value) was 16.8, the “mean symptom score, before treatment” value ([1]; starting value of the group) was 21.0 and the bioavailability [2] was “does not have a high bioavailability”.
